Where “and” joins values, the source holds several entries; their conditions need not be identical. Identical values can stand only once. Counter-ions that a name gives are not always drawn.
Legend:
RSV-GFP = format: cell-based, Respiratory syncytial virus
Procedure: WD-PNECs were cultured as per the referenced protocol. Using a sterile cytology brush, nasal scrapings were obtained from healthy volunteers with no known history of lung disease or respiratory medication use. Cells were then seeded on a collagen-coated flask and maintained in Bronchial Epithelial Cell Growth Medium (BEGM) (CC-3170, Lonza) or PneumaCult-Ex (05008, […] Technologies). Upon reaching 70% confluency, cells were passaged and seeded on collagen-coated transwell inserts (6.5 mm diameter, 0.4 µm pore size) (3413, Corning). An air–liquid interface was generated by removing media on the apical side of the cells and replacing the remaining media with PneumaCult-ALI media (05001, […] Technologies). By week 3, cells were differentiated with a ciliated phenotype. Transepithelial resistance was quantified using an ohmmeter (World Precision Instruments) to evaluate epithelial barrier function prior to experimentation. Cells were apically infected with RSV-GFP (MOI 0.01) and infection rates were quantified from GFP signal.

RSV A2 [1] = assay: Quantification of infectious virus production (plaque assay); format: cell-based, Respiratory syncytial virus; conditions: Fig 3B; atorvastatin 3.5 uM, simvastatin 1.5 uM; supernatants of RSV A2-infected HEp-2; replicate values
Procedure: HEp-2 cells were seeded to six-well plates at a density of 1 × 10^6 cells per well and incubated overnight at 37 °C/5% CO2. The following morning, cells were infected with RSV A2 (MOI 1.0) and treated with drugs 2 h post-viral exposure. The supernatant, containing progeny virions, was collected 48 h p.i., snap frozen, and stored at −80 °C. Quantification of infectious virus particles was performed by a traditional plaque assay. HEp-2 cells were seeded to six-well plates at a density of 1.5 × 10^6 cells per well and grown to 90% confluency. Cells were incubated with serial dilutions of the collected supernatants for 90 min at 37 °C/5% CO2 under frequent agitation. The inoculant was then removed and replaced with 4 mL of 1:1 4% FBS DMEM-F12/1% agarose. Plates were incubated for 5 days at 37 °C/5% CO2. Cells were then fixed with 10% formalin for 30 min at room temperature. After fixation and removal of agarose from each well, the cells were stained with 0.05% neutral red and plaques were quantified under a dissecting microscope.

[2] = test system: prenylated proteins (small GTPases); assay: Measurement of protein prenylation by click chemistry; format: cell-based; conditions: for GAPDH Normalized Intensity, Farnesylation / GAPDH Normalized Intensity, Geranylgeranylation / Raw Integrated Intensity, Farnesylation / Raw Integrated Intensity, Geranylgeranylation: + statin (atorvastatin 3.5 µM)
Procedure: HEp-2 cells were cultured in the presence of farnesyl alcohol azide (FAA) (SC-294586, Santa Cruz Biotechnology) or geranylgeranyl alcohol azide (GGAA) (C10249, Thermo Fisher Scientific) at a final concentration of 25 µM diluted in 10 mM aqueous NH4OH. Cells were infected with RSV A2 (MOI 0.5) and treated with drugs 2 h post-viral exposure. Cell lysis was performed on ice in RIPA buffer 48 h p.i., and prenylated proteins were reacted with biotin-PEG4-alkyne using the Click-iT Protein Reaction Buffer Kit (C10276, Thermo Fisher Scientific) as per the manufacturer’s protocol. Prenylated proteins in the processed samples were then visualized by western blot using a streptavidin-HRP conjugate (RPN1231, Cytiva) and Clarity ECL Substrate (1705061, Bio-Rad). Relative protein levels were quantified by densitometry in ImageJ (v1.52b).

RSV A2 [3] = assay: Western blot of total viral protein levels (pan-RSV antibody); format: cell-based, Respiratory syncytial virus; conditions: 24 h p.i.
Procedure: Prior studies in HEp-2 cells have shown that RSV mRNA and proteins can be detected 4–6 h p.i., while assembly is initiated roughly 10–12 h p.i., and mature viral filaments can be observed at the cell surface 16–18 h p.i.[26]–[28]. […] To verify this finding, a traditional plaque assay was performed to quantify infectious virus production from the supernatants of statin-treated RSV A2-infected HEp-2 cells. […] Lysates were also collected from RSV A2-infected HEp-2 cells (MOI 0.5) 24 h p.i. to probe viral protein expression by western blot. […] Changes to the expression and localization of the viral fusion glycoprotein (F) and nucleoprotein (N) were visualized by high-resolution confocal microscopy.
Box plots indicate the complete range (whiskers), interquartile range (box), and median (line) of measurements. […] Blots were stained using a pan-RSV polyclonal antibody (B65860G) that detects all viral antigens (see Supplementary Fig. 2). GAPDH controls were processed on a parallel blot with the same samples and protein load. Values are reported as means ± SEM (n = 3 cell lysates). d High-resolution confocal microscopy of the F (green) and N (magenta) proteins in RSV A2-infected HEp-2 cells (MOI 0.5). […] Scale bars = 20 µm. Statistics were calculated by a one-way ANOVA with a Dunnett’s multiple comparisons post hoc test (*P < 0.05, ***P < 0.001, ****P < 0.0001).
Supplementary Figure 2. Changes to viralprotein expression by statin or Rho GTPase inhibitor treatment. HEp-2 cells were infected with […]
post-viralexposure. Cell lysates were collected 24 h p.i.and viralprotein expression was probed using a pan-RSV polyclonal antibody (B65860G) which detects allviralantigens (n ≥2 cell lysates).GAPDH controlswere processed on parallelblots withthe same samples and protein load. […]

CC(C)c1c(C(=O)Nc2ccccc2)c(-c2ccccc2)c(-c2ccc(F)cc2)n1CC[C@@H](O)C[C@@H](O)CC(=O)O [Atorvastatin, Atorvastatin calcium salt trihydrate]
reduction of RSV-GFP infection (RSV-GFP; atorvastatin 5.0 µM, 72 h post-infection, mean ± SEM): 67.4 ± 11.5%
cellular viability of PNECs (RSV-GFP; microscopic appearance and barrier integrity): Cellular viability remained intact
Virus titre (log10 PFU/mL) (RSV A2 [1]): 4.38 log10 PFU/mL and 4.4624 log10 PFU/mL and 4.176 log10 PFU/mL and 4.322 log10 PFU/mL
GAPDH Normalized Intensity, Farnesylation ([2]; + RSV): 1.959 and 2.027
GAPDH Normalized Intensity, Geranylgeranylation ([2]; + RSV): 0.9753 and 1.167
Raw Integrated Intensity, Farnesylation ([2]; + RSV): 2027541 and 2238487
Raw Integrated Intensity, Geranylgeranylation ([2]; + RSV): 1062035 and 1238827
GAPDH Normalized Intensity, Farnesylation ([2]; - RSV): 1.992 and 1.8833
GAPDH Normalized Intensity, Geranylgeranylation ([2]; - RSV): 0.8805 and 0.8849
Raw Integrated Intensity, Geranylgeranylation ([2]; - RSV): 899910 and 921628
Raw Integrated Intensity, Farnesylation ([2]; - RSV, one value per lane): 1842503 and 1809411
effect on virus-induced small GTPase prenylation ([2]; atorvastatin 3.5 µM, 48 h p.i.): largely mitigate these virus-induced increases to small GTPase prenylation
Total viral protein levels (GAPDH normalized) (RSV A2 [3]; MOI 0.5, atorvastatin 3.5 uM, simvastatin 1.5 uM, one value per lysate): 1.385 and 1.458 and 1.299
total viral protein levels by western blot (RSV A2 [3]; atorvastatin 3.5 µM, simvastatin 1.5 µM, EHT 1864 20.0 µM): decrease in total viral protein levels

Source: article PMC8556396, “Statin-mediated disruption of Rho GTPase prenylation and activity inhibits respiratory syncytial virus infection” (Communications Biology, 2021)
